≈ marks a conversion by molar mass, not a printed value. Where two headings read alike, the source gives them in different places.
How the values were obtained:
[1] = test system: S. aureus Smith mutant containing the L466S mutation in RpoB; test: Mouse septicemia model, S. aureus Smith RpoB L466S; assay type: in vivo; conditions: 1.1 × 10^7 CFU/mouse, three days
Procedure: (§1) Antimicrobial compounds may also be screened in vivo using a mouse septicemia model. In one particular example, mice were inoculated with an S. aureus Smith strain (Weiss) encoding a mutated microbial polypeptide (e.g., a mutated RpoB). Compounds were administered either IV or orally 30 minutes following inoculation, and observations was continued for three days. Compounds that promoted the survival of inoculated mice were identified as being compounds that are effective against antibiotic-resistant forms of S. aureus.
(§2) This was accounted for by the increased MIC against these mutant strains compared with the wild-type strain (MICs of 2 μg/ml and 0.004-0.008 μg/ml, respectively).

[2] = test system: S. aureus Smith containing the RpoB H481Y alteration; test: Mouse septicemia model, S. aureus Smith RpoB H481Y; assay type: in vivo; conditions: for Survival (n = 5): mouse, 1.1 × 10^7 CFU/mouse, three days
Procedure: as §1, §2

[3] = test system: S. aureus Smith mutant containing the S486L mutation in RpoB; test: Mouse septicemia model, S. aureus Smith RpoB S486L; assay type: in vivo; conditions: 1.4 × 10^7 CFU/mouse, three days
Procedure: as §1, §2

[4] = test system: S. aureus RpoB mutant R484S; test: MIC, S. aureus RpoB R484S mutant; assay type: cell-based; conditions: Staphylococcus aureus; RpoB mutation R484S; strain background 1
Description: (§3) S. aureus is one of the most frequently encountered Gram-positive pathogens. Drug resistance-conferring mutations typically occur within the β subunit of RNA polymerase (RpoB mutations), in the rifampin-binding site. Mutants of S. aureus were isolated by inoculating a culture of S. aureus ATCC strain 29213 (standard susceptibility testing strain) into medium containing rifampin or rifalazil; by inoculating S. aureus ATCC strain 29213 into medium containing chemical derivatives of rifamycin (NCEs); by inoculating S. aureus Smith, a variant optimally adapted to colonizing and causing disease in the mouse septicemia model, into medium containing rifampin; and by using the Ian Chopra collection, the parent strain of which is S. aureus 8325-4 and described previously by Oliva et al. (Antimicrob. Agents Chemother. 45:532-9, 2001). […]
(§4) Having identified these mutants, the minimum inhibitory concentrations (MIC) of a number of rifamycin derivatives were determined in microtiter trays by inoculating 1-8×10^4 microorganisms in 100 μl of Mueller-Hinton Broth (cation adjusted) containing the indicated compound (Table 3) (National Committee for Clinical Laboratory Standards, Methods for Dilution Antimicrobial Susceptibility Tests for Bacteria That Grow Aerobically-Fourth Edition: Approved Standard M7-A4. NCCLS, Villanova, Pa., 1997). […]

[5] = test system: S. aureus RpoB mutant A477V; test: MIC, S. aureus RpoB A477V mutant; assay type: cell-based; conditions: Staphylococcus aureus; RpoB mutation A477V; strain backgrounds 1, 2
Description: as §3, §4

[6] = test system: S. aureus RpoB mutant R484C; test: MIC, S. aureus RpoB R484C mutant; assay type: cell-based; conditions: Staphylococcus aureus; RpoB mutation R484C; strain background 3
Description: as §3, §4

[7] = test system: S. aureus RpoB mutant H481N; test: MIC, S. aureus RpoB H481N mutant; assay type: cell-based; conditions: Staphylococcus aureus; RpoB mutation H481N; strain backgrounds 1, 4
Description: as §3, §4

[8] = test system: S. aureus RpoB mutant Q468K; test: MIC, S. aureus RpoB Q468K mutant; assay type: cell-based; conditions: Staphylococcus aureus; RpoB mutation Q468K; strain background 1
Description: as §3, §4

[9] = test system: S. aureus RpoB mutant I527P; test: MIC, S. aureus RpoB I527P mutant; assay type: cell-based; conditions: Staphylococcus aureus; RpoB mutation I527P; strain background 1
Description: as §3, §4

[10] = test system: S. aureus RpoB mutant D471Y; test: MIC, S. aureus RpoB D471Y mutant; assay type: cell-based; conditions: Staphylococcus aureus; RpoB mutation D471Y; strain backgrounds 1, 2, 4
Description: as §3, §4

[11] = test system: S. aureus RpoB mutant R484H; test: MIC, S. aureus RpoB R484H mutant; assay type: cell-based; conditions: Staphylococcus aureus; RpoB mutation R484H; strain backgrounds 1, 3
Description: as §3, §4

[12] = test system: S. aureus RpoB mutant S464P; test: MIC, S. aureus RpoB S464P mutant; assay type: cell-based; conditions: Staphylococcus aureus; RpoB mutation S464P; strain backgrounds 1, 2, 4
Description: as §3, §4

[13] = test system: S. aureus RpoB mutant H481Y; test: MIC, S. aureus RpoB H481Y mutant; assay type: cell-based; conditions: Staphylococcus aureus; RpoB mutation H481Y; strain backgrounds 1, 2, 3
Description: as §3, §4

[14] = test system: S. aureus RpoB mutant H481D; test: MIC, S. aureus RpoB H481D mutant; assay type: cell-based; conditions: Staphylococcus aureus; RpoB mutation H481D; strain backgrounds 1, 4
Description: as §3, §4

[15] = test system: S. aureus RpoB mutant I527M; test: MIC, S. aureus RpoB I527M mutant; assay type: cell-based; conditions: Staphylococcus aureus; RpoB mutation I527M; strain background 1
Description: as §3, §4

[16] = test system: S. aureus RpoB mutant A477D; test: MIC, S. aureus RpoB A477D mutant; assay type: cell-based; conditions: Staphylococcus aureus; RpoB mutation A477D; strain backgrounds 1, 4
Description: as §3, §4

[17] = test system: S. aureus 29213; test: Mutant score test (resistance development on agar); assay type: cell-based; conditions: 10^9 cells of S. aureus 29213 on agar plate with 1 μg/ml compound
Procedure: A further confirmation of the validity of MIC testing of the mutant panel was provided by our mutant score test. Using this strategy, compounds were individually tested for resistance development by inoculating 10^9 cells of S. aureus 29213, a standard susceptibility strain, onto a large agar plate (150 mm) containing Mueller Hinton Agar as well as 1 μg/ml of the test compound. The presence of rifalazil or rifampin in these plates generally allowed for the growth of ˜50 colonies, all colonies representing a mutant sub-population or populations in the culture. […] The MICs of NCEs on agar plates were lower than MICs determined by growth in liquid broth. […] This correlation provided additional confidence in the value and ranking of compounds by MIC testing of the mutant panel, as compounds having a score of 2 have tracked with strong activity in MIC testing against resistant strains, as indicated in Table 3.

[18] = test system: S. aureus RpoB mutant Q468R; test: MIC, S. aureus RpoB Q468R mutant; assay type: cell-based; conditions: Staphylococcus aureus; RpoB mutation Q468R; strain background 1
Description: as §3, §4

[19] = test system: S. aureus RpoB mutant D471V; test: MIC, S. aureus RpoB D471V mutant; assay type: cell-based; conditions: Staphylococcus aureus; RpoB mutation D471V; strain background 3
Description: as §3, §4

[20] = test system: S. aureus RpoB mutant D471G; test: MIC, S. aureus RpoB D471G mutant; assay type: cell-based; conditions: Staphylococcus aureus; RpoB mutation D471G; strain backgrounds 1, 2
Description: as §3, §4

[21] = test system: S. aureus RpoB mutant H481R; test: MIC, S. aureus RpoB H481R mutant; assay type: cell-based; conditions: Staphylococcus aureus; RpoB mutation H481R; strain background 3
Description: as §3, §4

[22] = test system: Wild-type parent strains (S. aureus 29213, Smith, W59536, 8325-4); test: MIC, wild-type parent S. aureus strains; assay type: cell-based
Description: S. aureus is one of the most frequently encountered Gram-positive pathogens. Drug resistance-conferring mutations typically occur within the β subunit of RNA polymerase (RpoB mutations), in the rifampin-binding site. Mutants of S. aureus were isolated by inoculating a culture of S. aureus ATCC strain 29213 (standard susceptibility testing strain) into medium containing rifampin or rifalazil; by inoculating S. aureus ATCC strain 29213 into medium containing chemical derivatives of rifamycin (NCEs); by inoculating S. aureus Smith, a variant optimally adapted to colonizing and causing disease in the mouse septicemia model, into medium containing rifampin; and by using the Ian Chopra collection, the parent strain of which is S. aureus 8325-4 and described previously by Oliva et al. (Antimicrob. Agents Chemother. 45:532-9, 2001). Mutants resistant to rifampin, rifalazil, or NCEs were selected either on drug-containing plates or in liquid culture.
Having identified these mutants, the minimum inhibitory concentrations (MIC) of a number of rifamycin derivatives were determined in microtiter trays by inoculating 1-8×10^4 microorganisms in 100 μl of Mueller-Hinton Broth (cation adjusted) containing the indicated compound (Table 3) (National Committee for Clinical Laboratory Standards, Methods for Dilution Antimicrobial Susceptibility Tests for Bacteria That Grow Aerobically-Fourth Edition: Approved Standard M7-A4. NCCLS, Villanova, Pa., 1997). These cultures were incubated for 16-20 hours at 35° C. Based on our results, the most important mutants (conferring the strongest resistance) were identified for more extensive testing of NCEs. These mutants were H481Y, Q468K, S486L, D471Y, S464P, A477D, and H481D. […] An exception to the uniformity of the measure of resistance is provided by the mutants D471Y and S464P, which together have lower MICs for some of the compounds compared to the rest. […]

[23] = test system: S. aureus RpoB mutant D471E; test: MIC, S. aureus RpoB D471E mutant; assay type: cell-based; conditions: Staphylococcus aureus; RpoB mutation D471E; strain background 4
Description: as §3, §4

[24] = test system: S. aureus RpoB mutant Q137L; test: MIC, S. aureus RpoB Q137L mutant; assay type: cell-based; conditions: Staphylococcus aureus; RpoB mutation Q137L; strain backgrounds 1, 4
Description: as §3, §4

[25] = test system: S. aureus RpoB mutant L466S; test: MIC, S. aureus RpoB L466S mutant; assay type: cell-based; conditions: Staphylococcus aureus; RpoB mutation L466S; strain backgrounds 1, 2, 4
Description: as §3, §4

[26] = test system: S. aureus RpoB mutant S486L; test: MIC, S. aureus RpoB S486L mutant; assay type: cell-based; conditions: Staphylococcus aureus; RpoB mutation S486L; strain backgrounds 1, 2, 4
Description: as §3, §4

Row | Structure (SMILES) | Survival (n = 5) ([1]; IV 6.0 mg/kg) | Survival (n = 5) ([2]; IV 6.0 mg/kg) | Survival (n = 5) ([3]; IV 6.0 mg/kg) | MIC [4] | MIC [5] | MIC [6] | MIC [7] | MIC [8] | MIC [9] | MIC [10] | MIC [11] | MIC [12] | MIC [13] | MIC [14] | MIC [15] | MIC [16] | growth of mutant colonies on plate [17] | MIC [18] | MIC [19] | MIC [20] | also measured
1 | O=C(O)c1cn(C2CC2)c2cc(N3CCNCC3)c(F)cc2c1=O [Ciprofloxacin] | 5 | 4 | 5 |  |  |  |  |  |  |  |  |  |  |  |  |  |  |  |  |  | Survival (n = 5) ([1]; IV 0.6 mg/kg): 1; Survival (n = 5) ([1]; IV 2.0 mg/kg): 4; Survival (n = 5) ([2]; IV 0.6 mg/kg): 2; Survival (n = 5) ([2]; IV 2.0 mg/kg): 5; Survival (n = 5) ([3]; IV 0.6 mg/kg): 1; Survival (n = 5) ([3]; IV 2.0 mg/kg): 3
2 | CO[C@H]1/C=C/O[C@@]2(C)Oc3c(C)c(O)c4c(=O)c(c5oc6cc(N7CCN(CC(C)C)CC7)cc(O)c6nc-5c4c3C2=O)NC(=O)/C(C)=C\C=C\[C@H](C)[C@H](O)[C@@H](C)[C@@H](O)[C@@H](C)[C@H](OC(C)=O)[C@@H]1C [Rfz, rifalazil] |  |  |  | 0.5 µg/mL (≈ 0.531 µM) | 0.063 µg/mL (≈ 0.0669 µM) | 0.5 µg/mL (≈ 0.531 µM) | 0.125 µg/mL (≈ 0.133 µM) | > 8 µg/mL | 1 µg/mL (≈ 1.06 µM) | 0.25 µg/mL (≈ 0.266 µM) | 8 µg/mL (≈ 8.5 µM) | 1 µg/mL (≈ 1.06 µM) | > 8 µg/mL | > 8 µg/mL | 0.063 µg/mL (≈ 0.0669 µM) | 2 to 4 µg/mL (≈ 2.13 to 4.25 µM) | ~50 colonies | > 8 µg/mL | 2 µg/mL (≈ 2.13 µM) | > 8 µg/mL | MIC [21]: > 8 µg/mL; MIC ([22]; Mutation None: wild-type parent strains): 0.015 µg/mL (≈ 0.0159 µM); MIC ([22]; Staphylococcus aureus, strain not stated, matches wild-type value of Table 2, read-out: MIC): 0.015 µg/mL (≈ 0.0159 µM); MIC [23]: < 0.031 µg/mL; MIC [24]: < 0.031 µg/mL; MIC [25]: 0.016 µg/mL (≈ 0.017 µM); MIC [26]: > 8 µg/mL
3 | CO[C@H]1/C=C/O[C@@]2(C)Oc3c(C)c(O)c4c(O)c(c(/C=N/N5CCN(C)CC5)c(O)c4c3C2=O)NC(=O)/C(C)=C\C=C\[C@H](C)[C@H](O)[C@@H](C)[C@@H](O)[C@@H](C)[C@H](OC(C)=O)[C@@H]1C [Rifampicin, rifampin] | 0 | 0 | 0 | 8 µg/mL (≈ 9.72 µM) | 1 µg/mL (≈ 1.22 µM) | 2 µg/mL (≈ 2.43 µM) | 2 µg/mL (≈ 2.43 µM) | > 8 µg/mL | 4 µg/mL (≈ 4.86 µM) | 1 µg/mL (≈ 1.22 µM) | > 8 µg/mL | > 8 µg/mL | > 8 µg/mL | > 8 µg/mL | 0.25 µg/mL (≈ 0.304 µM) | > 8 µg/mL | ~50 colonies | > 8 µg/mL | > 8 µg/mL | > 8 µg/mL | Survival (n = 5) ([1]; IV 20.0 mg/kg): 0; efficacy against mutant strains in vivo ([2]; mouse septicemia model, mutant strains in general): failed to be effective; Survival (n = 5) ([2]; IV 20.0 mg/kg): 0; Survival (n = 5) ([2]; oral 200.0 mg/kg): 0; MIC [21]: > 8 µg/mL; MIC ([22]; Staphylococcus aureus, Mutation None: wild-type parent strains, read-out: MIC): 0.015 µg/mL (≈ 0.0182 µM); MIC [23]: 0.25 µg/mL (≈ 0.304 µM); MIC [24]: 0.25 µg/mL (≈ 0.304 µM); MIC [25]: 0.25 µg/mL (≈ 0.304 µM); Survival (n = 5) ([3]; IV 20.0 mg/kg): 1; MIC [26]: > 8 µg/mL

Reference: patent publication US20050282242A1, “Screening assays for antimicrobial agents” (priority 2004, published 2005)
